Source: BindingDB's records for doi:10.7270/Q2736PBV (Broad Institute, 2009)

What follows are compounds tested against T1, Streptokinase A (Streptococcus pyogenes serotype M1, UniProt P10520) (assay: S. pyogenes streptokinase expression inhibitors, potency, dose response, plasminogen activation absorbance, OD405 (AID 1914)).
T1 sequence (P10520 whole entry): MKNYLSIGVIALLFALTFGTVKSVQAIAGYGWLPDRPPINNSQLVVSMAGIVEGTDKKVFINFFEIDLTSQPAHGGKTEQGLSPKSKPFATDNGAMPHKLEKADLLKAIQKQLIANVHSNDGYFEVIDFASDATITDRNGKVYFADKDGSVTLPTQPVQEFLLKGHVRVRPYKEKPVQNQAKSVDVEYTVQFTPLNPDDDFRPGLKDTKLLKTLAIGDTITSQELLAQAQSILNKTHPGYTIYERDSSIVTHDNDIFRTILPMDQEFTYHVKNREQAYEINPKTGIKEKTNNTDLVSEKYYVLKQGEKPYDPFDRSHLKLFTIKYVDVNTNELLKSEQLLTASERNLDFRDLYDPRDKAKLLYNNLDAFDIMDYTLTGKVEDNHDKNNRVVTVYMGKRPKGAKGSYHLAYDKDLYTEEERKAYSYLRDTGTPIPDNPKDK

| Compound | EC50 [µM] |
| --- | --- |
| O=C1C=CC(N=Nc2ccc([N+](=O)[O-])cc2)C(O)=C1 (stereo not drawn) [MLS000530152] | 50 |
| O=C1C([N+](=O)[O-])=CC(Cl)=CC1CN=Nc1ccccn1 (stereo not drawn) [MLS000539830] | 11.1 |
| O=NC(c1ccc(Cl)cc1Cl)c1ncc(C(F)(F)F)cc1Cl (stereo not drawn) [MLS000540015] | 35.2 |
| Cc1ccc(-n2c(=O)c3[nH][nH]n(CC(=O)N4N=C(c5cccc6ccccc56)CC4c4ccccc4)c=3c2=O)cc1 (stereo not drawn) [MLS000546672] | 35.7 |
| CC(C)(C)C1CCC2=C(C#N)C(=N)C(C#N)(C#N)C(c3cccs3)C2C1 (stereo not drawn) [MLS000552642] | 25.7 |
| c1csc(CN=Nc2ncnc3sc4c(c23)CCC4)c1 [MLS000571423] | > 150 |
| N#CC1C(=N)OC2=C(CCc3ccccc32)C1c1ccccc1Cl (stereo not drawn) [MLS000586146] | 11.9 |
| COc1ccc(C2C(C(=O)c3ccccc3)C(C)=Nc3nc4ccccc4n32)c(OC)c1 (stereo not drawn) [MLS000586747] | > 150 |
| COc1ccc(CN=Nc2cc(C)nc(-n3nc(C)cc3C)n2)c(OC)c1 [MLS000589396] | > 150 |
| O=C(O)c1ccc(N=NCc2ccc(OC(=O)c3ccccc3Cl)cc2)cc1 [MLS000589715] | > 150 |
| C=Nc1c(N(C(C)=O)c2ccc(Br)cc2)c(O)c2ccccc2c1O [MLS000700612] | 23.9 |
| CC(C)C(N=Nc1ccccc1[N+](=O)[O-])c1ccccc1 (stereo not drawn) [MLS000712651] | 18.4 |
| Oc1ccc(Br)cc1CN=Nc1nc(N2CCCCC2)nc(N2CCOCC2)n1 [MLS000713264] | 33.6 |
| CCOC(=O)c1ccc(NC(=O)Cc2sc(N=NCc3c[nH]c4ccccc34)nc2O)cc1 [MLS000722052] | > 150 |
| CC(N=Nc1ccc(C(=O)O)cc1)c1ccc2c(c1)Nc1ccccc1S2 (stereo not drawn) [MLS000759774] | > 150 |
| Cc1ccc(NC(=S)N/N=C2\C(=O)Nc3ccccc32)cc1 [MLS000760038] | > 150 |
| Cc1[nH]n(-c2nc3ccccc3[nH]2)c(=O)c1Cc1ccccc1 [MLS000762809] | > 150 |
| CCCCCCC(=O)NNC=C1C(=O)NC(=S)N(CCCC)C1=O [MLS000763126] | > 150 |
| O=C1N=C(Nc2ccccc2)SC1=Cc1c[nH]c2ccccc12 [MLS000766635] | > 150 |
| COC1=CC(CN=Nc2nc3ccccc3s2)C=C([N+](=O)[O-])C1=O (stereo not drawn) [MLS000777866] | > 150 |
| O=C1N=c2ccccc2=C1NNC(=S)N1CCOCC1 [MLS000778251] | > 150 |

| Compound | EC50 [µM] |
| --- | --- |
| CCCOc1ccc(C2C(C(=O)c3cc4ccccc4o3)C(=O)C(=O)N2c2cc(C)on2)cc1OC (stereo not drawn) [MLS001142810] | > 150 |
| Cc1ccc(C2C(C(=O)c3cc4ccccc4o3)C(=O)C(=O)N2c2cc(C)on2)cc1 (stereo not drawn) [MLS001147776] | 6.3 |
| N#CC(C(=O)CCl)c1nc2c(s1)CCc1ccccc1-2 (stereo not drawn) [MLS001171530] | > 150 |
| O=C(Nc1nnc(-c2ccc(Br)cc2)o1)c1cccc(-n2c(O)ccc2O)c1 [MLS001235111] | > 150 |
| COC(=O)/N=N/C=C1\C=[N+]([O-])c2ccccc2N1O [MLS001333201] | > 150 |
| COc1ccc(CN=Nc2nc(Nc3ccccc3)nc(N3CCCCC3)n2)cc1OC [N2-[(3,4-dimethoxyphenyl)methylideneamino]-N4-phenyl-6-piperidin-1-yl-1,3,5-triazine-2,4-diamine] | > 150 |
| O=C1C([N+](=O)[O-])=CC(Cl)=CC1/C=N/NC(=O)C(O)(c1ccccc1)c1ccccc1 (stereo not drawn) [N''''-[(E)-(3-chloro-5-nitro-6-oxocyclohexa-2,4-dien-1-ylidene)methyl]-2-hydroxy-2,2-diphenylacetohydrazide] | > 150 |
| COC1=CC([N+](=O)[O-])=CC(/C=N/NC(=O)C(C)Nc2cccc(C)c2)C1=O (stereo not drawn) [N'-[(1E)-(2-hydroxy-3-methoxy-5-nitrophenyl)methylene]-2-[(3-methylphenyl)amino]propanohydrazide] | > 150 |
| O=C1NC(=S)N(C2CCCCC2)C(=O)C1=CNNC(=O)c1ccccc1 [N'-[(E)-(1-cyclohexyl-4,6-dioxo-2-sulfanylidene-1,3-diazinan-5-ylidene)methyl]benzohydrazide] | > 150 |
| O=C1NC(=O)N(Cc2ccccc2)C(=O)C1=CNNC(=O)c1ccccc1 [N'-[(E)-[2,4,6-tris(oxidanylidene)-1-(phenylmethyl)-1,3-diazinan-5-ylidene]methyl]benzohydrazide] | > 150 |
| CN(C)S(=O)(=O)c1ccc(-c2csc(N=NCc3ccc(O)cc3)n2)cc1 [N,N-dimethyl-4-[2-[2-[(4-oxidanylidenecyclohexa-2,5-dien-1-ylidene)methyl]hydrazinyl]-1,3-thiazol-4-yl]benzenesulfonamide] | > 150 |
| Cc1[nH]c2ccccc2c1CN=Nc1nc2ccccc2[nH]1 [N-(1H-Benzoimidazol-2-yl)-N'-[1-(2-methyl-1H-indol-3-yl)-meth-(E)-ylidene]-hydrazine] | > 150 |
| O=C1Nc2ccccc2C1=NNc1ccc(S(=O)(=O)Nc2cccc(Cl)c2)cc1[N+](=O)[O-] [N-(3-chlorophenyl)-3-nitro-4-[2-(2-oxoindol-3-yl)hydrazinyl]benzenesulfonamide] | 27.4 |
| Cc1nc(N=NC(C)c2ccc(Br)cc2)cc(N2CCCCC2)n1 (stereo not drawn) [N-[1-(4-bromophenyl)ethylideneamino]-2-methyl-6-piperidin-1-ylpyrimidin-4-amine] | 46.7 |
| CC(NNC(=O)c1cc2ccccc2cc1O)=C1C(=O)c2ccccc2C1=O [N-[1-[1,3-bis(oxidanylidene)inden-2-yl]ethylideneamino]-3-oxidanyl-naphthalene-2-carboxamide] | > 150 |
| Cc1ccc2c(c1)=C(NNC(=O)c1ccc(NS(=O)(=O)c3cccs3)cc1)C(=O)N=2 [N-[4-[[(5-methyl-2-oxoindol-3-yl)amino]carbamoyl]phenyl]thiophene-2-sulfonamide] | > 150 |
| O=C(CCCCCNC(=O)c1ccccc1)NNC1=c2cc(Br)cc(Br)c2=NC1=O [N-[6-[2-[5,7-bis(bromanyl)-2-oxidanylidene-indol-3-yl]hydrazinyl]-6-oxidanylidene-hexyl]benzamide] | > 150 |
| CN1c2ccsc2C(NNc2ccccc2)=CS1(=O)=O [N-[(1-methyl-2,2-dioxo-4-thieno[3,2-c]thiazinylidene)amino]aniline] | 4.12 |
| Cc1cc(N=NCc2cccc(Br)c2)nc2ccccc12 [N-[(3-bromophenyl)methylideneamino]-4-methyl-2-quinolinamine] | > 150 |
| O=[N+]([O-])c1cccc(CN=Nc2nc(N3CCCCC3)nc(N3CCCCC3)n2)c1 [N-[(3-nitrophenyl)methylideneamino]-4,6-bis(1-piperidinyl)-1,3,5-triazin-2-amine] | 39.4 |
| CCCCN1C(=O)/C(=N\NC(=O)c2ccccc2NS(=O)(=O)c2cccs2)c2ccccc21 [N-[(Z)-(1-butyl-2-oxoindol-3-ylidene)amino]-2-(thiophen-2-ylsulfonylamino)benzamide] | > 150 |

| Compound | EC50 [µM] |
| --- | --- |
| Cn1cnnc1SCc1ccc(C(=O)N/N=C2\C(=O)N(Cc3ccc(Cl)cc3)c3ccccc32)cc1 [N-[(Z)-[1-[(4-chlorophenyl)methyl]-2-oxidanylidene-indol-3-ylidene]amino]-4-[(4-methyl-1,2,4-triazol-3-yl)sulfanylmethyl]benzamide] | 18 |
| Cc1ccc(-c2nn(-c3ccccc3)cc2CN=O)cc1 [N-[[3-(4-methylphenyl)-1-phenylpyrazol-4-yl]methylidene]hydroxylamine] | > 150 |
| CN(C)CCN=CC(C(=O)Nc1ccc(Cl)cc1Cl)C(=O)Nc1ccc(Cl)cc1Cl [N~1~,N~3~-bis(2,4-dichlorophenyl)-2-({[2-(dimethylamino)ethyl]amino}methylene)malonamide] | > 150 |
| N#CC1C(=N)SC(=N)C(C#N)C1c1c(Cl)cccc1Cl (stereo not drawn) [SMR000009709] | 93.5 |
| CCN(CC)c1ccc(C=NC(C#N)C(=N)C#N)cc1 (stereo not drawn) [SMR000023871] | > 150 |
| Fc1ccc(Br)cc1C1CC(c2ccc(Br)s2)=Nc2ncnn21 (stereo not drawn) [SMR000032932] | > 150 |
| C=CCN1C(=O)NC(=O)C(=C(C)Nc2ccc(N(CC)CC)cc2)C1=O [SMR000043704] | > 150 |
| CCCCN1C(=O)NC(=O)C(=C(C)Nc2ccc(OCC)cc2)C1=O [SMR000058103] | > 150 |
| CCc1ccc(C2C(C#N)C(=N)C(C#N)(C#N)C3=CCC(C(C)(C)C)CC32)cc1 (stereo not drawn) [SMR000115124] | 5.84 |
| CCCc1sc(N=NCc2ccccn2)nc1-c1ccc(F)cc1 [SMR000116776] | > 150 |
| CCCc1sc(N=NCc2ccccn2)nc1-c1ccc(Br)cc1 [SMR000116777] | > 150 |
| Oc1ccc2ccccc2c1CN=Nc1nnc(-c2ncc[nH]2)c2ccccc12 [SMR000151639] | 5.52 |
| O=C1C2C(=NC(=S)NC2c2ccc(Cl)cc2)NC(c2ccc(Cl)cc2)N1c1ccc(Cl)cc1 (stereo not drawn) [SMR000155440] | > 150 |
| CCn1cc(C(=O)O)c(=O)c2cc(F)c(N=NCc3ccccc3[N+](=O)[O-])cc21 [SMR000171611] | > 150 |
| Cc1cc(=O)n(-c2nc(-c3ccccc3)cs2)[nH]1 [SMR000175888] | 10 |
| C=c1[nH][nH]c(=O)c1=Cc1cn(-c2ccccc2)nc1-c1ccc(Cl)cc1 [SMR000193592] | 4.83 |
| CC(Oc1ccc(Cl)cc1Cl)C(=O)Nc1cc(=O)n(-c2ccccc2)[nH]1 (stereo not drawn) [SMR000195064] | 123 |
| COc1ccccc1CN=Nc1cc(C)nc(-n2nc(C)cc2C)n1 [SMR000212744] | > 150 |
| Oc1ccc(CN=Nc2nc(-c3ccc(Cl)cc3)cc(C(F)(F)F)n2)cc1 [SMR000212812] | 16.3 |
| O=C(CC1=NC2(CCCC2)Cc2ccccc21)C(=O)NN=Cc1ccccc1O [SMR000219463] | > 150 |
| COc1cc(CN=Nc2ncnc3sc4c(c23)CCC4)ccc1O [SMR000242188] | 5.06 |
